A short description of this data set: Measurement of log P values by HPLC on reversed phase columns (EEC directive 79/831 Annex V.A8; methods [a] pH 2.3, [b] pH 2.7, [c] pH 7.8). The data set is classed as physicochemical. As to the method: Measurement of log P-values:
Measurement of log P values was performed according EEC directive 79/831 Annex V.A8 by HPLC (High Performance Liquid Chromatography) on reversed phase columns with the following methods:
^[a] Measurement was done at pH 2.3 with 0.1% phosphoric acid and acetonitrile as eluent with a linear gradient from 10% acetonitrile to 95% acetonitrile.
^[b] measurement of LC-MS was done at pH 2.7 with 0.1% formic acid in water and with acetonitrile (contains 0.1% formic acid) as eluent with a linear gradient from 10% acetonitrile to 95% acetonitrile.
^[c] Measurement with LC-MS was done at pH 7.8 with 0.001 molar ammonium hydrogen carbonate solution in water as eluent with a linear gradient from 10% acetonitrile to 95% acetonitrile.
Calibration was done with not branched alkan2-ones (with 3 to 16 carbon atoms) with known log P-values (measurement of log P values using retention times with linear interpolation between successive alkanones).. lambda-maX-values were determined using UV-spectra from 200 nm to 400 nm and the peak values of the chromatographic signals.

The mark [1] stands for this setting: method [b]: LC-MS at pH 2.7, 0.1% formic acid in water / acetonitrile.
Setting [2] is: method [c]: LC-MS at pH 7.8, 0.001 molar ammonium hydrogen carbonate in water / acetonitrile.
Setting [3] is: method [b]: LC-MS, pH 2.7, 0.1% formic acid in water / acetonitrile.
Setting [4] is: method [c]: LC-MS, pH 7.8, 0.001 molar ammonium hydrogen carbonate / acetonitrile.

Each structure is given as a SMILES string.

In the case of `COC(c1ccccc1Cl)C(C)NC(=O)c1sc(C)nc1C(F)(F)F` (centres unmarked) [Compound 212], the “log P” value by setting is: under setting [1], 3.34^[b]; under setting [2], 3.31^[c];.
With `CCOC(c1ccc(Cl)cc1Cl)C(C)NC(=O)c1c(F)cccc1C(F)(F)F` (centres unmarked) [Compound 193], the “log P” value under setting [1] is 4.55^[b] and the “log P” value under setting [2] was 4.53^[c];.
On to `COC(c1ccc(Cl)cc1Cl)C(C)(C)NC(=O)c1c(F)cccc1F` (centres unmarked) [Compound 77], for which the logP is 4.29^[b] under setting [3] and 4.24^[c]; under setting [4].
As for `CCOC(c1ccc(Cl)cc1Cl)C(C)NC(=O)c1ccccc1Br` (centres unmarked) [Compound 200], the “log P” value under setting [1] was 4.43^[b] and the “log P” value under setting [2] is 4.39^[c];.
For `COC(c1ccc(Cl)cc1Cl)C(C)NC(=O)c1c(C(F)F)nn(C)c1F` (centres unmarked) [compound 14], the logP under setting [3] is 3.65^[b].
Consider `COC(c1ccc(Cl)cc1Cl)C1(NC(=O)c2ccccc2I)CC1` (centres unmarked) [Compound 152], for which the “log P” value runs as follows: under setting [1], 3.92^[b]; under setting [2], 3.88^[c];.
As to `COC(c1ccc(Cl)cc1Cl)C1(NC(=O)c2ccccc2Cl)CC1` (centres unmarked) [Compound 154], the “log P” value was 3.76^[b] under setting [1] and 3.71^[c]; under setting [2].
On to `COC(c1ccc(Cl)cc1Cl)C(C)NC(=O)c1cc(C)nn1C` (centres unmarked) [compound 124], for which the “log P” value under setting [1] is 3.08^[b].
Take `COC(c1ccc(Cl)cc1)C(C)NC(=O)c1ccccc1I` (centres unmarked) [Compound 137]: the “log P” value by setting is: under setting [1], 3.44^[b]; under setting [2], 3.42^[c];.
As for `CCOC(c1ccc(Cl)cc1Cl)C(C)NC(=O)c1ccccc1F` (centres unmarked) [Compound 195], the “log P” value runs as follows: under setting [1], 4.66^[b]; under setting [2], 4.65^[c];.
As for `COC(CN(C(=O)c1cccnc1C(F)(F)F)C1CC1)c1ccc(Cl)cc1Cl` (centres unmarked) [Compound 166], the “log P” value under setting [1] is 4.16^[b].
As to `COC(CNC(=O)c1c(F)cccc1F)c1ccc(Cl)cc1` (centres unmarked) [Compound 72], the logP is, setting by setting: under setting [3], 2.81^[b]; under setting [4], 2.79^[c];.
For the compound `COC(c1ccc(Cl)cc1Cl)C(C)(C)NC(=O)c1ccccc1Cl` (centres unmarked) [Compound 75], the logP by setting is: under setting [3], 4.59^[b]; under setting [4], 4.54^[c];.
Take `CCC(NC(=O)c1c(C(F)F)nn(C)c1Cl)C(OC)c1ccc(Cl)cc1Cl` (centres unmarked) [Compound 48]: the logP under setting [3] is 4.18^[b].
For the compound `COC(c1ccc(Cl)cc1Cl)C(C)N(C(=O)c1cccnc1C(F)(F)F)C1CC1` (centres unmarked) [Compound 173], under setting [1], the “log P” value was 4.44^[b].
As for `COC(c1ccc(F)cc1)C(C)NC(=O)c1c(F)cccc1F` (centres unmarked) [Compound 185], the “log P” value was 2.80^[b] under setting [1] and 2.76^[c]; under setting [2].
With `C#CCOC(c1ccc(Cl)cc1)C(C)(C)NC(=O)c1sccc1C` (centres unmarked) [compound 4], the logP (method [a]: HPLC, pH 2.3, 0.1% phosphoric acid / acetonitrile) is 4.22^[a].
As to `COC(c1ccc(Cl)cc1)C(C)NC(=O)c1c(F)cccc1F` (centres unmarked) [Compound 132, N-[1-(4-chlorophenyl)-1-methoxypropan-2-yl]-2,6-difluorobenzamide], the chromatographic logP (method [b]: LC-MS at pH 2.7, 0.1% formic acid in water / acetonitrile, read-out: log P) turned out to be 3.12.
With `COC(c1cc(Cl)cc(Cl)c1)C(C)NC(=O)c1cccnc1Cl` (centres unmarked) [Compound 94], the logP under setting [3] was 3.17^[b].
Consider `COC(CNC(=O)c1cccnc1C(F)F)c1cc(Cl)cc(Cl)c1` (centres unmarked) [Compound 117], for which, under setting [1], the “log P” value was 2.88^[b].
`COC(c1ccc(Cl)cc1Cl)C1(NC(=O)c2c(F)cccc2F)CC1` (centres unmarked) [Compound 150]: the “log P” value under setting [1] was 3.57^[b] and the “log P” value under setting [2] is 3.53^[c];.
As for `CCOC(c1ccc(Cl)cc1Cl)C(C)NC(=O)c1cccnc1` (centres unmarked) [Compound 206], the “log P” value is 2.89^[b] under setting [1] and 3.03^[c]; under setting [2].
As to `COC(CNC(=O)c1cccnc1C(F)F)c1ccc(Cl)cc1Cl` (centres unmarked) [Compound 101], the logP under setting [3] is 2.80^[b].
Regarding `COC(c1ccccc1Cl)C(C)NC(=O)c1ccccc1C(F)(F)F` (centres unmarked) [Compound 145], the “log P” value was 3.45^[b] under setting [1] and 3.41^[c]; under setting [2].
As to `COC(CNC(=O)c1cccnc1Cl)c1cc(Cl)cc(Cl)c1` (centres unmarked) [Compound 118], under setting [1], the “log P” value was 2.82^[b].
For `CCOC(c1ccc(Cl)cc1Cl)C(C)NC(=O)c1c(C(F)F)nn(C)c1Cl` (centres unmarked) [Compound 46], the logP under setting [3] was 4.46^[b].
Consider `COC(c1cc(Cl)cc(Cl)c1)C(C)NC(=O)c1c(C(F)F)nn(C)c1F` (centres unmarked) [Compound 43], for which the logP under setting [3] was 3.70^[b].
Regarding `CCOC(c1ccc(Cl)cc1Cl)C(C)NC(=O)c1nccnc1Cl` (centres unmarked) [Compound 214], the “log P” value was 3.89^[b] under setting [1] and 3.85^[c]; under setting [2].
For `COC(c1ccc(Cl)cc1Cl)C(C)NC(=O)c1cn(C)nc1C(F)F` (centres unmarked) [compound 17], the logP under setting [3] was 3.25^[b].
`CCOC(c1ccc(Cl)cc1Cl)C(C)NC(=O)c1c(F)cccc1F` (centres unmarked) [Compound 196]: the “log P” value runs as follows: under setting [1], 4.14^[b]; under setting [2], 4.13^[c];.
Regarding `CCC(NC(=O)c1cccnc1C(F)(F)F)C(OC)c1ccc(Cl)cc1Cl` (centres unmarked) [Compound 91], the logP under setting [3] is 3.70^[b].
Same read-out and setting: the same measure for `COC(c1ccc(Cl)cc1)C(C)NC(=O)c1snc(Cl)c1Cl` (centres unmarked) [Compound 61]: 4.34^[b]; for `COC(c1ccc(Cl)cc1Cl)C1(NC(=O)c2cccnc2C(F)F)CC1` (centres unmarked) [Compound 97]: 3.06^[b].
Turning to `COC(c1ccc(Cl)cc1)C(C)NC(=O)c1ccccc1F` (centres unmarked) [Compound 133], the “log P” value by setting is: under setting [1], 3.40^[b]; under setting [2], 3.44^[c];.
Regarding `COC(c1ccc(Cl)cc1)C(C)(C)NC(=O)c1ccccc1Cl` (centres unmarked) [Compound 84], the logP runs as follows: under setting [3], 4.12^[b]; under setting [4], 3.87^[c];.
As to `COC(c1cc(Cl)cc(Cl)c1)C(C)NC(=O)c1cccnc1C(F)(F)F` (centres unmarked) [Compound 96], the logP under setting [3] is 3.52^[b].
In the case of `COC(c1ccc(Cl)cc1)C(C)(C)NC(=O)c1cccnc1Cl` (centres unmarked) [Compound 81], the logP reads like this: under setting [3], 3.24^[b]; under setting [4], 3.23^[c];.
With `COC(c1ccc(F)cc1)C(C)NC(=O)c1c(F)cccc1C(F)(F)F` (centres unmarked) [Compound 189], the “log P” value under setting [1] was 3.24^[b] and the “log P” value under setting [2] is 3.19^[c];.
With `COC(CN(C(=O)C1=C(C)OCCS1)C1CC1)c1ccc(Cl)cc1Cl` (centres unmarked) [Compound 169], under setting [1], the “log P” value was 4.11^[b].
Turning to `COC(c1ccc(Cl)cc1)C(C)(C)NC(=O)c1c(F)cccc1F` (centres unmarked) [Compound 82], the logP runs as follows: under setting [3], 3.78^[b]; under setting [4], 3.79^[c];.
As for `COC(c1ccc(Cl)cc1Cl)C(C)N(C(=O)c1ncc(Cl)cc1C(F)(F)F)C1CC1` (centres unmarked) [Compound 159], under setting [1], the “log P” value was 5.39^[b].
Turning to `COC(c1ccc(Cl)cc1Cl)C1(NC(=O)c2c(C(F)F)nn(C)c2F)CC1` (centres unmarked) [Compound 51], under setting [3], the logP is 3.46^[b].
With `COC(c1ccc(Cl)cc1Cl)C1(NC(=O)c2ccccc2F)CC1` (centres unmarked) [Compound 155], the “log P” value under setting [1] was 3.78^[b] and the “log P” value under setting [2] was 3.75^[c];.
For `COC(c1ccc(F)cc1)C(C)NC(=O)c1ccccc1C` (centres unmarked) [Compound 188], the “log P” value is 2.91^[b] under setting [1] and 2.86^[c]; under setting [2].
`COC(c1ccc(Cl)cc1Cl)C1(NC(=O)c2ccccc2Br)CC1` (centres unmarked) [Compound 151]: the “log P” value is 3.82^[b] under setting [1] and 3.76^[c]; under setting [2].
Take `COC(CNC(=O)c1cccnc1C(F)(F)F)c1cc(Cl)cc(Cl)c1` (centres unmarked) [Compound 119]: under setting [1], the “log P” value was 3.19^[b].
As for `COC(c1ccc(Cl)cc1Cl)C1(NC(=O)c2ccccc2[N+](=O)[O-])CC1` (centres unmarked) [Compound 211], the “log P” value is 3.33^[b] under setting [1] and 3.26^[c]; under setting [2].
On the same counts, the results for `CCOC(c1ccc(Cl)cc1Cl)C(C)NC(=O)c1ccccc1I` (centres unmarked) [Compound 197] are 4.51^[b] and 4.56^[c];.
With `CCOC(c1ccc(Cl)cc1Cl)C(C)NC(=O)c1ccccc1C(F)F` (centres unmarked) [Compound 199], the “log P” value runs as follows: under setting [1], 4.45^[b]; under setting [2], 4.40^[c];.
As to `COC(c1ccccc1Cl)C(C)NC(=O)c1cccnc1` (centres unmarked) [Compound 207], the “log P” value under setting [1] was 1.94^[b] and the “log P” value under setting [2] was 2.09^[c];.
Take `COC(c1ccc(F)cc1)C(C)NC(=O)c1cccnc1Cl` (centres unmarked) [Compound 184]: the “log P” value under setting [1] was 2.25^[b] and the “log P” value under setting [2] was 2.23^[c];.
For `COC(c1ccc(Cl)cc1)C(C)NC(=O)c1ccccc1[N+](=O)[O-]` (centres unmarked) [Compound 139], in that order: 2.83^[b] and 2.93^[c];.
Take `COC(c1ccc(Cl)cc1Cl)C(C)(C)N(C)C(=O)c1ccccc1C(F)(F)F` (centres unmarked) [Compound 182]: the “log P” value reads like this: under setting [1], 5.42^[b]; under setting [2], 5.34^[c];.
As for `COC(c1ccc(Cl)cc1Cl)C(C)(C)NC(=O)c1occc1Br` (centres unmarked) [Compound 80], the logP by setting is: under setting [3], 4.59^[b]; under setting [4], 4.37^[c];.
Regarding `COC(c1ccc(Cl)cc1Cl)C(C)(C)NC(=O)c1ccccc1F` (centres unmarked) [Compound 74], the logP runs as follows: under setting [3], 4.80^[b]; under setting [4], 4.77^[c];.
With `COC(c1ccc(Cl)cc1Cl)C1(NC(=O)c2c(F)cccc2C(F)(F)F)CC1` (centres unmarked) [Compound 149], the “log P” value reads like this: under setting [1], 4.00^[b]; under setting [2], 3.95^[c];.
For `COC(c1ccc(Cl)cc1Cl)C(C)(C)NC(=O)c1sccc1Cl` (centres unmarked) [Compound 78], the logP was 5.34^[b] under setting [3] and 5.31^[c]; under setting [4].

The values above are taken from patent US20160100579A1, “NEMATICIDAL N-(2-SUBSTITUTED 2-PHENYLETHYL)CARBOXAMIDES AND N-(2-SUBSTITUTED 2-PHENYLETHYL)-THIOCARBOXAMIDES” (priority 2013, published 2016).
